# Measured values from ChEMBL document CHEMBL3045272, “Synthesis and fungicidal activities of novel bis(trifluoromethyl)phenyl-based strobilurins” (J Agric Food Chem, 2008).
# What was measured:
# Blumeria graminis [1] = assay: Fungicidal activity against Blumeria graminis infected compound pre-treated wheat plants assessed as disease preventive activity at 500 ppm measured after 1 or 2 weeks; type: functional
# Blumeria graminis [2] = assay: Fungicidal activity against Blumeria graminis infected compound pre-treated wheat plants assessed as disease preventive activity at 1.5 ppm measured after 1 or 2 weeks; type: functional
# Blumeria graminis [3] = assay: Fungicidal activity against Blumeria graminis infected compound pre-treated wheat plants assessed as disease preventive activity at 3.1 ppm measured after 1 or 2 weeks; type: functional
# Blumeria graminis [4] = assay: Fungicidal activity against Blumeria graminis infected compound pre-treated wheat plants assessed as disease preventive activity at 6.2 ppm measured after 1 or 2 weeks; type: functional
# Blumeria graminis [5] = assay: Fungicidal activity against Blumeria graminis infected compound pre-treated wheat plants assessed as disease preventive activity at 100 ppm measured after 1 or 2 weeks; type: functional
# Podosphaera fuliginea [6] = assay: Fungicidal activity against Podosphaera fuliginea infected cucumber plants exposed to compound treatment 1 day post infection assessed as disease curative activity measured after 1 or 2 weeks; type: functional, organism-based
# Podosphaera fuliginea [7] = assay: Fungicidal activity against Podosphaera fuliginea infected cucumber plants exposed to compound treatment 1 day post infection assessed as disease curative activity at 0.78 mg/L measured after 1 or 2 weeks; type: functional
# Podosphaera fuliginea [8] = assay: Fungicidal activity against Podosphaera fuliginea infected cucumber plants exposed to compound treatment 1 day post infection assessed as disease curative activity at 1.56 mg/L measured after 1 or 2 weeks; type: functional
# Blumeria graminis [9] = assay: Fungicidal activity against Blumeria graminis infected compound pre-treated wheat plants assessed as disease preventive activity at 0.78 mg/L measured after 1 or 2 weeks; type: functional
# Blumeria graminis [10] = assay: Fungicidal activity against Blumeria graminis infected compound pre-treated wheat plants assessed as disease preventive activity at 1.56 mg/L measured after 1 or 2 weeks; type: functional
# Blumeria graminis [11] = assay: Fungicidal activity against Blumeria graminis infected compound pre-treated wheat plants assessed as disease preventive activity at 3.12 mg/L measured after 1 or 2 weeks; type: functional
# Blumeria graminis [12] = assay: Fungicidal activity against Blumeria graminis infected compound pre-treated wheat plants assessed as disease preventive activity at 6.25 mg/L measured after 1 or 2 weeks; type: functional
# Podosphaera fuliginea [13] = assay: Fungicidal activity against Podosphaera fuliginea infected cucumber plants exposed to compound treatment 1 day post infection assessed as disease curative activity at 3.12 mg/L measured after 1 or 2 weeks; type: functional
# Podosphaera fuliginea [14] = assay: Fungicidal activity against Podosphaera fuliginea infected cucumber plants exposed to compound treatment 1 day post infection assessed as disease curative activity at 6.25 mg/L measured after 1 or 2 weeks; type: functional
# Blumeria graminis [15] = assay: Fungicidal activity against Blumeria graminis infected wheat plants exposed to compound treatment 1 day post infection assessed as disease curative activity measured after 1 or 2 weeks; type: functional, organism-based
# Blumeria graminis [16] = assay: Fungicidal activity against Blumeria graminis infected wheat plants exposed to compound treatment 1 day post infection assessed as disease curative activity at 1.56 mg/L measured after 1 or 2 weeks; type: functional
# Blumeria graminis [17] = assay: Fungicidal activity against Blumeria graminis infected wheat plants exposed to compound treatment 1 day post infection assessed as disease curative activity at 0.78 mg/L measured after 1 or 2 weeks; type: functional
# Blumeria graminis [18] = assay: Fungicidal activity against Blumeria graminis infected wheat plants exposed to compound treatment 1 day post infection assessed as disease curative activity at 3.12 mg/L measured after 1 or 2 weeks; type: functional
# Blumeria graminis [19] = assay: Fungicidal activity against Blumeria graminis infected wheat plants exposed to compound treatment 1 day post infection assessed as disease curative activity at 6.25 mg/L measured after 1 or 2 weeks; type: functional
# Podosphaera fuliginea [20] = assay: Fungicidal activity against Podosphaera fuliginea infected compound pre-treated cucumber plants assessed as disease preventive activity at 0.78 mg/L measured after 1 or 2 weeks; type: functional
# Podosphaera fuliginea [21] = assay: Fungicidal activity against Podosphaera fuliginea infected compound pre-treated cucumber plants assessed as disease preventive activity at measured after 1 or 2 weeks; type: functional, organism-based
# Podosphaera fuliginea [22] = assay: Fungicidal activity against Podosphaera fuliginea infected compound pre-treated cucumber plants assessed as disease preventive activity at 1.56 mg/L measured after 1 or 2 weeks; type: functional
# Podosphaera fuliginea [23] = assay: Fungicidal activity against Podosphaera fuliginea infected compound pre-treated cucumber plants assessed as disease preventive activity at 3.12 mg/L measured after 1 or 2 weeks; type: functional
# Podosphaera fuliginea [24] = assay: Fungicidal activity against Podosphaera fuliginea infected compound pre-treated cucumber plants assessed as disease preventive activity at 6.25 mg/L measured after 1 or 2 weeks; type: functional
# Blumeria graminis [25] = assay: Fungicidal activity against Blumeria graminis infected compound pre-treated wheat plants assessed as disease preventive activity measured after 1 or 2 weeks; type: functional, organism-based
smiles,measurement,setting,value
CO/C=C(/C(=O)OC)c1ccccc1CO/N=C(\SC(C)C)c1cc(C(F)(F)F)cc(C(F)(F)F)c1,Activity,Blumeria graminis [1],85%
CO/N=C(/C(=O)OC)c1ccccc1CO/N=C(\SC(C)C)c1cc(C(F)(F)F)cc(C(F)(F)F)c1,Activity,Blumeria graminis [1],85%
CO/C=C(/C(=O)OC)c1ccccc1CO/N=C(/c1cc(C(F)(F)F)cc(C(F)(F)F)c1)[S+](C)[O-] (stereo unspecified),Activity,Blumeria graminis [1],70%
CO/C=C(/C(=O)OC)c1ccccc1CO/N=C(/c1cc(C(F)(F)F)cc(C(F)(F)F)c1)S(C)(=O)=O,Activity,Blumeria graminis [1],70%
CO/C=C(/C(=O)OC)c1ccccc1CO/N=C(\SC)c1cc(C(F)(F)F)cc(C(F)(F)F)c1,Activity,Blumeria graminis [2],75%
same,Activity,Blumeria graminis [3],93%
same,Activity,Blumeria graminis [4],98%
same,Activity,Blumeria graminis [1],100%
same,Activity,Blumeria graminis [5],100%
CNC(=O)/C(=N/OC)c1ccccc1CO/N=C(\SC)c1cc(C(F)(F)F)cc(C(F)(F)F)c1,Activity,Blumeria graminis [3],25%
same,Activity,Blumeria graminis [4],40%
same,Activity,Blumeria graminis [1],100%
same,Activity,Blumeria graminis [5],100%
CO/N=C(/C1=NOCCO1)c1ccccc1CO/N=C(\SC)c1cc(C(F)(F)F)cc(C(F)(F)F)c1,Activity,Blumeria graminis [3],10%
same,Activity,Blumeria graminis [4],20%
same,Activity,Blumeria graminis [1],100%
same,Activity,Blumeria graminis [5],100%
CO/N=C(/C(=O)OC)c1ccccc1CO/N=C(\SC)c1cc(C(F)(F)F)cc(C(F)(F)F)c1,Activity,Blumeria graminis [1],100%
same,Activity,Blumeria graminis [5],80%
COC(=O)N(OC)c1ccccc1CO/N=C(\SC)c1cc(C(F)(F)F)cc(C(F)(F)F)c1,Activity,Blumeria graminis [3],30%
same,Activity,Blumeria graminis [4],65%
same,Activity,Blumeria graminis [1],90%
same,Activity,Blumeria graminis [5],90%
CO/C=C(/C(=O)OC)c1ccccc1CO/N=C(\OC)c1cc(C(F)(F)F)cc(C(F)(F)F)c1,EC50,Podosphaera fuliginea [6],0.8 µg/mL
same,EC90,Podosphaera fuliginea [6],1.4 µg/mL
same,Activity,Podosphaera fuliginea [7],56%
same,Activity,Podosphaera fuliginea [8],92%
same,Activity,Blumeria graminis [9],20%
same,Activity,Blumeria graminis [10],60%
same,Activity,Blumeria graminis [11],81%
same,Activity,Blumeria graminis [12],100%
same,Activity,Blumeria graminis [2],98%
same,Activity,Blumeria graminis [3],100%
same,Activity,Blumeria graminis [4],100%
same,Activity,Podosphaera fuliginea [13],100%
same,Activity,Podosphaera fuliginea [14],100%
same,EC50,Blumeria graminis [15],1.5 µg/mL
same,EC90,Blumeria graminis [15],4.8 µg/mL
same,Activity,Blumeria graminis [16],50%
same,Activity,Blumeria graminis [17],20%
same,Activity,Blumeria graminis [18],82%
same,Activity,Blumeria graminis [19],94%
same,Activity,Podosphaera fuliginea [20],59%
same,EC50,Podosphaera fuliginea [21],0.8 µg/mL
same,EC90,Podosphaera fuliginea [21],1.5 µg/mL
same,Activity,Podosphaera fuliginea [22],80%
same,Activity,Podosphaera fuliginea [23],100%
same,Activity,Podosphaera fuliginea [24],100%
same,EC50,Blumeria graminis [25],1.2 µg/mL
same,EC90,Blumeria graminis [25],2.8 µg/mL
same,Activity,Blumeria graminis [1],100%
same,Activity,Blumeria graminis [5],100%
CO/N=C(\C(=O)OC)c1ccccc1CO/N=C(\C)c1cccc(C(F)(F)F)c1,Activity,Blumeria graminis [2],75%
same,Activity,Blumeria graminis [3],98%
same,Activity,Blumeria graminis [4],100%
same,Activity,Blumeria graminis [1],100%
same,Activity,Blumeria graminis [5],100%
CO/C=C(/C(=O)OC)c1ccccc1Oc1cc(Oc2ccccc2C#N)ncn1 [AZOXYSTROBIN],EC50,Podosphaera fuliginea [6],0.8 µg/mL
same,EC90,Podosphaera fuliginea [6],2.1 µg/mL
same,Activity,Podosphaera fuliginea [7],55%
same,Activity,Podosphaera fuliginea [8],80%
same,Activity,Blumeria graminis [9],20%
same,Activity,Blumeria graminis [10],50%
same,Activity,Blumeria graminis [11],65%
same,Activity,Blumeria graminis [12],90%
same,Activity,Blumeria graminis [2],62%
same,Activity,Blumeria graminis [3],80%
same,Activity,Blumeria graminis [4],85%
same,Activity,Podosphaera fuliginea [13],90%
same,Activity,Podosphaera fuliginea [14],100%
same,EC50,Blumeria graminis [15],1.7 µg/mL
same,EC90,Blumeria graminis [15],5.9 µg/mL
same,Activity,Blumeria graminis [16],52%
same,Activity,Blumeria graminis [17],15%
same,Activity,Blumeria graminis [18],78%
same,Activity,Blumeria graminis [19],89%
same,Activity,Podosphaera fuliginea [20],35%
same,EC50,Podosphaera fuliginea [21],1.2 µg/mL
same,EC90,Podosphaera fuliginea [21],4.5 µg/mL
same,Activity,Podosphaera fuliginea [22],60%
same,Activity,Podosphaera fuliginea [23],80%
same,Activity,Podosphaera fuliginea [24],95%
same,EC50,Blumeria graminis [25],1.7 µg/mL
same,EC90,Blumeria graminis [25],7 µg/mL
same,Activity,Blumeria graminis [1],100%
same,Activity,Blumeria graminis [5],100%
CNC(=O)/C(=N/OC)c1ccccc1Oc1ccccc1 [METOMINOSTROBIN],Activity,Blumeria graminis [2],65%
same,Activity,Blumeria graminis [3],85%
same,Activity,Blumeria graminis [4],95%
same,Activity,Blumeria graminis [1],100%
same,Activity,Blumeria graminis [5],100%
